Tests used:
[1] = tested on: FADD−/− Jurkat cells; assay: Necroptosis inhibition assay, TNF-α-induced necroptosis (CellTiter-Glo 2.0); format: cell-based, human; conditions: TNF-α 15 ng/mL; for Necroptosis inhibition assay (Rescue %) 1 μM: compound 1 μM; for Necroptosis inhibition assay (Rescue %) 10 μM: compound 10 μM
Description: Necroptosis Inhibition Assay
Necroptosis inhibition was evaluated by the following method.
80 μL of FADD gene-defective human T lymphocyte cells (FADD−/− Jurkat cells) were equally distributed into each well at 5.0×10^5 cells/mL in a white 96-well plate with a transparent bottom. 20 μL of the medium containing test compound was treated in each well so that the final concentration of the compound was 0.1, 1, and 10 μM, and reacted at room temperature for 30 minutes. After the 30-minute reaction was over, TNF (tumor necrosis factor)-α was treated in the corresponding well so that the final concentration of TNF-α was 15 ng/mL in order to induce necroptosis. It was cultured in a 5% CO2, 37° C. incubator for 20 to 24 hours.
After incubation, the 96-well plate was left at room temperature for 30 minutes. After 30 minutes, Promega's CellTiter-Glo 2.0 reagent was diluted 1:3 with PBS and 100 μL of the diluted solution was added to each well to confirm cell viability by measuring the amount of ATP. After the treatment, the plate was shielded from light and incubated at room temperature for 2 minutes with orbital shaking, and then left at room temperature for 10 minutes without shaking. After measuring the luminescence at 0.5 seconds per well using a plate scanner, the cytotoxicity and necroptosis inhibition rate for the compound were calculated using the measured values.

[2] = biological target: T1, MLKL (Homo sapiens, UniProt Q8NB16); assay: Measurement of binding affinity with MLKL receptor (competitive binding assay, Kd); design: made in house; host or cells: HEK 293 cell line (T7 phage in E. coli BL21-derived host is also described)
T1 sequence (Q8NB16 1-471): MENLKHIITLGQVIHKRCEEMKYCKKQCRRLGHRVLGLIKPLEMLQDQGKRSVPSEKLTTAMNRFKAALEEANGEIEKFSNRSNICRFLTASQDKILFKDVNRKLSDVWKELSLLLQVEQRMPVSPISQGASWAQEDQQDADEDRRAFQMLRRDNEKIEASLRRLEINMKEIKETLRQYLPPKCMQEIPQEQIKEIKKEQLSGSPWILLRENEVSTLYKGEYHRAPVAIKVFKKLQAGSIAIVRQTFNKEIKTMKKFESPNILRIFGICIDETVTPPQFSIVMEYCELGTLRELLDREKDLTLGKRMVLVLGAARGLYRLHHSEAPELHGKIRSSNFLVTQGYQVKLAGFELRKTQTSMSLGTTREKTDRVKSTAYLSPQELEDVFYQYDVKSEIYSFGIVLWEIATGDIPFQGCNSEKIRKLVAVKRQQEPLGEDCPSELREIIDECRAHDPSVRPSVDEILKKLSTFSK
Description: Measurement of Binding Affinity with MLKL Receptor (Competitive Binding Assay)
The binding affinity was evaluated by measuring the Kd value in the following method.
To prepare kinase-tagged T7 phage strains in an E. coli host derived from the BL21 strain, E. coli were grown to log-phase and infected with T7 phage and incubated with shaking at 32° C. until lysis. The lysates were centrifuged and filtered to remove cell debris. For kinase production, it was expressed in human embryonic kidney cell line (HEK 293 cell line), and subsequently tagged with DNA for qPCR detection.
The liganded beads were blocked with excess biotin and washed with blocking buffer (SeaBlock (Pierce), 1% BSA, 0.05% Tween 20, 1 mM DTT) to remove unbound ligand and to reduce non-specific binding. […] Test compounds were prepared as 111× stocks in 100% DMSO.
The compounds were then diluted directly into the assays such that the final concentration of DMSO was 0.9%. All reactions performed in polypropylene 384-well plate. Each was a final volume of 0.02 ml. […] The kinase concentration in the eluates was measured by qPCR.

Kd [2] | Structure (SMILES) | Necroptosis inhibition assay (Rescue %) 1 μM [1] | Necroptosis inhibition assay (Rescue %) 10 μM [1]
19 nM | Nc1ncc(C2=CCN(C(=O)COCCOCCNC(=O)CNc3cccc4c3C(=O)N(C3CCC(=O)NC3=O)C4=O)CC2)cc1C(=O)O[C@@H](C(=O)Nc1ccc(F)cc1)c1ccccc1 (stereo partly drawn) [TDH-084, (R)-2-((4-fluorophenyl)amino)-2-oxo-1-phenylethyl 6-amino-1′-(2-(2-(2-(2-((2-(2,6-dioxopiperidin-3-yl)-1,3-dioxoisoindolin-4-yl)amino)acetamido)ethoxy)ethoxy)acetyl)-1′,2′,3′,6′-tetrahydro-[3,4′-bipyridine]-5-carboxylate] | 14.91% | 3.95%
41 nM | Nc1ncc(C2=CCN(C(=O)COCCOCCNC(=O)C3CN(c4cccc5c4C(=O)N(C4CCC(=O)NC4=O)C5=O)C3)CC2)cc1C(=O)O[C@@H](C(=O)Nc1ccc(F)cc1)c1ccccc1 (stereo partly drawn) [TDH-086, (R)-2-((4-fluorophenyl)amino)-2-oxo-1-phenylethyl 6-amino-1′-(2-(2-(2-(1-(2-(2,6-dioxopiperidin-3-yl)-1,3-dioxoisoindolin-4-yl)azetidine-3-carboxamido)ethoxy)ethoxy)acetyl)-1′,2′, 3′,6′-tetrahydro-[3,4′-bipyridine]-5-carboxylate] | 2.91% | 
33 nM | Nc1ncc(C2=CCN(C(=O)COCCOCCNC(=O)C3CCN(c4cccc5c4C(=O)N(C4CCC(=O)NC4=O)C5=O)CC3)CC2)cc1C(=O)O[C@@H](C(=O)Nc1ccc(F)cc1)c1ccccc1 (stereo partly drawn) [TDH-088, (R)-2-((4-fluorophenyl)amino)-2-oxo-1-phenylethyl 6-amino-1′-(2-(2-(2-(1-(2-(2,6-dioxopiperidin-3-yl)-1,3-dioxoisoindolin-4-yl)piperidine-4-carboxamido)ethoxy)ethoxy)acetyl)-1′,2′,3′,6′-tetrahydro-[3,4′-bipyridine]-5-carboxylate] | 4.62% | 
120 nM | Nc1ncc(C2=CCN(C(=O)CCCCCNC(=O)C3CN(c4ccc5c(c4)C(=O)N(C4CCC(=O)NC4=O)C5=O)C3)CC2)cc1C(=O)O[C@@H](C(=O)Nc1ccc(F)cc1)c1ccccc1 (stereo partly drawn) [TDH-092, (R)-2-((4-fluorophenyl)amino)-2-oxo-1-phenylethyl 6-amino-1′-(6-(1-(2-(2,6-dioxopiperidin-3-yl)-1,3-dioxoisoindolin-5-yl)azetidine-3-carboxamido)hexanoyl)-1′,2′,3′,6′-tetrahydro-[3,4′-bipyridine]-5-carboxylate] | 2.1% | 

The remaining lines, values behind:

Structure (SMILES) | Kd [2] | Necroptosis inhibition assay (Rescue %) 1 μM [1] | Necroptosis inhibition assay (Rescue %) 10 μM [1]
Nc1ncc(C2=CCN(C(=O)CCCCCNC(=O)COc3cccc4c3C(=O)N(C3CCC(=O)NC3=O)C4=O)CC2)cc1C(=O)O[C@@H](C(=O)Nc1ccc(F)cc1)c1ccccc1 (stereo partly drawn) [TDH-081, (R)-2-((4-fluorophenyl)amino)-2-oxo-1-phenylethyl 6-amino-1′-(6-(2-((2-(2,6-dioxopiperidin-3-yl)-1,3-dioxoisoindolin-4-yl)oxy)acetamido)hexanoyl)-1′,2′,3′,6′-tetrahydro-[3,4′-bipyridine]-5-carboxylate] | 50 nM | 6.8% | 
Nc1ncc(C2=CCN(C(=O)COCCOCCNC(=O)CNc3ccc4c(c3)C(=O)N(C3CCC(=O)NC3=O)C4=O)CC2)cc1C(=O)O[C@@H](C(=O)Nc1ccc(F)cc1)c1ccccc1 (stereo partly drawn) [TDH-085, (R)-2-((4-fluorophenyl)amino)-2-oxo-1-phenylethyl 6-amino-1′-(2-(2-(2-(2-((2-(2,6-dioxopiperidin-3-yl)-1,3-dioxoisoindolin-5-yl)amino)acetamido)ethoxy)ethoxy)acetyl)-1′,2′,3′,6′-tetrahydro-[3,4′-bipyridine]-5-carboxylate] | 12 nM | 5.02% | 
CC(C)(C)OC(=O)N1CCC(n2cc(-c3cnc(N)c(C(=O)N[C@@H](C(=O)Nc4ccc(F)cc4)c4ccccc4)n3)cn2)CC1 [TDH-098, tert-butyl (R)-4-(4-(5-amino-6-((2-((4-fluorophenyl)amino)-2-oxo-1-phenylethyl)carbamoyl)pyrazin-2-yl)-1H-pyrazol-1-yl)piperidine-1-carboxylate] | 200 nM | 3.54% | 
Cl.Nc1ncc(-c2cnn(C3CCNCC3)c2)nc1C(=O)N[C@@H](C(=O)Nc1ccc(F)cc1)c1ccccc1 [TDH-099, (R)-3-amino-N-(2-((4-fluorophenyl)amino)-2-oxo-1-phenylethyl)-6-(1-(piperidin-4-yl)-1H-pyrazol-4-yl)pyrazine-2-carboxamide hydrochloride] | 11 nM | 18.18% | 
Nc1ncc(C2=CCN(CCOCCOCCNC(=O)CNc3ccc4c(c3)C(=O)N(C3CCC(=O)NC3=O)C4=O)CC2)nc1C(=O)O[C@@H](C(=O)Nc1ccc(F)cc1)c1ccccc1 (stereo partly drawn) [TDH-107, (R)-2-((4-fluorophenyl)amino)-2-oxo-1-phenylethyl 3-amino-6-(1-(2-(2-(2-(2-((2-(2,6-dioxopiperidin-3-yl)-1,3-dioxoisoindolin-5-yl)amino)acetamido)ethoxy)ethoxy)ethyl)-1,2,3,6-tetrahydropyridin-4-yl)pyrazine-2-carboxylate] | 560 nM | 24.34% | 50.16%
Cl.Nc1ncc(-c2cnn(C3CCNCC3)c2)cc1C(=O)O[C@@H](C(=O)Nc1ccc(F)cc1)c1ccccc1 [TDH-112, (R)-2-((4-fluorophenyl)amino)-2-oxo-1-phenylethyl 2-amino-5-(1-(piperidin-4-yl)-1H-pyrazol-4-yl)nicotinate hydrochloride] | 2 nM | 20.24% | 
Nc1ncc(-c2cnn(C3CCN(CCOCCOCCNC(=O)C4CN(c5ccc6c(c5)C(=O)N(C5CCC(=O)NC5=O)C6=O)C4)CC3)c2)nc1C(=O)O[C@@H](C(=O)Nc1ccc(F)cc1)c1ccccc1 (stereo partly drawn) [TDH-116, (R)-2-((4-fluorophenyl)amino)-2-oxo-1-phenylethyl 3-amino-6-(1-(1-(2-(2-(2-(1-(2-(2,6-dioxopiperidin-3-yl)-1,3-dioxoisoindolin-5-yl)azetidine-3-carboxamido)ethoxy)ethoxy)ethyl)piperidin-4-yl)-1H-pyrazol-4-yl)pyrazine-2-carboxylate] | 2 nM | 16.8% | 42.8%
Nc1ncc(-c2cnn(C3CCN(CCCCCCNc4ccc5c(c4)C(=O)N(C4CCC(=O)NC4=O)C5=O)CC3)c2)nc1C(=O)O[C@@H](C(=O)Nc1ccc(F)cc1)c1ccccc1 (stereo partly drawn) [TDH-120, (R)-2-((4-fluorophenyl)amino)-2-oxo-1-phenylethyl 3-amino-6-(1-(1-(6-((2-(2,6-dioxopiperidin-3-yl)-1,3-dioxoisoindolin-5-yl)amino)hexyl)piperidin-4-yl)-1H-pyrazol-4-yl)pyrazine-2-carboxylate] | 1.7 nM | 10.65% | 
Nc1ncc(-c2cnn(C3CCN(CCOCCOCCNc4cccc5c4C(=O)N(C4CCC(=O)NC4=O)C5=O)CC3)c2)nc1C(=O)O[C@@H](C(=O)Nc1ccc(F)cc1)c1ccccc1 (stereo partly drawn) [TDH-121, (R)-2-((4-fluorophenyl)amino)-2-oxo-1-phenylethyl 3-amino-6-(1-(1-(2-(2-(2-((2-(2,6-dioxopiperidin-3-yl)-1,3-dioxoisoindolin-4-yl)amino)ethoxy)ethoxy)ethyl)piperidin-4-yl)-1H-pyrazol-4-yl)pyrazine-2-carboxylate] | 4.6 nM | 2.96% | 

Reference: patent publication US20240252488A1 (KOREA RESEARCH INSTITUTE OF CHEMICAL TECHNOLOGY, priority 2020, published 2024)
